Test results from patent EP4740962A1, “PHARMACEUTICAL COMPOSITION, FORMULATION CONTAINING PHARMACEUTICAL COMPOSITION, KIT CONTAINING PHARMACEUTICAL COMPOSITION, PREPARATION METHOD FOR PHARMACEUTICAL COMPOSITION, AND USE OF PHARMACEUTICAL COMPOSITION” (Shanghai WD Pharmaceutical Co., Ltd, priority 2023, dated 2025).

Key:
[1] = Compatibility study of voriconazole granule raw material and excipients at 40°C/75% RH; format: physicochemical
Source text: (§1) After preparation into the formulation, there was a risk of exceeding the limit for related substances in terms of stability.

[2] = Compatibility study of carbidopa-levodopa granule raw materials and excipients at 40°C/75% RH; format: physicochemical
Source text: as §1

In the case of C[C@@H](c1ncncc1F)[C@](O)(Cn1cncn1)c1ccc(F)cc1F [Voriconazole], the Appearance [1] was “No change”, the Total impurities (%) ([1]; 0 Days) was 0.01% and the Total impurities (%) ([1]; 14 Days) was 0.01%. The Total impurities (%) ([1]; 28 Days) was 0.01%.

For N[C@@H](Cc1ccc(O)c(O)c1)C(=O)O [Levodopa], the Appearance [2] was “No change”, the “Total impurities (%)” value ([2]; 0 Days) was “Not detected” and the “Total impurities (%)” value ([2]; 14 Days) was 0.03%. The “Total impurities (%)” value ([2]; 28 Days) was 0.07%.

For C[C@@](Cc1ccc(O)c(O)c1)(NN)C(=O)O [Carbidopa], the Appearance [2] was “No change”, the “Total impurities (%)” value ([2]; 0 Days) was 0.10% and the “Total impurities (%)” value ([2]; 14 Days) was 0.08%. For the same compound, the “Total impurities (%)” value ([2]; 28 Days) was 0.07%.
